The values below come from patent publication US20240374585A1, “EPITHELIAL SODIUM CHANNEL (ENAC) INHIBITOR CONJUGATES AND METHODS FOR USE THEREOF” (Lung Therapeutics, Inc., priority 2021, published 2024).

The target in one data set is T1, neutrophil elastase (Homo sapiens, UniProt P08246).
T1 sequence (P08246 30-267): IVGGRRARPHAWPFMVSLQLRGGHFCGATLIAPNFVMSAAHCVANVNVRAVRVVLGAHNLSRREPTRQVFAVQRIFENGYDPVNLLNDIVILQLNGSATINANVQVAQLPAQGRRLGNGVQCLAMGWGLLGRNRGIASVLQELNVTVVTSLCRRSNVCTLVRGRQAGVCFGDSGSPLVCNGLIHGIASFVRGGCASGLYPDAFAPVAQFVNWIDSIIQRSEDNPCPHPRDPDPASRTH

The test system of data set [1] is sheep model of cystic fibrosis. Description: Tracheal mucous velocity (TMV) in sheep model of cystic fibrosis. The format is in vivo. The protocol: The conjugates of the present invention were tested for their ability to increase lung mucociliary clearance in a sheep model of cystic fibrosis.
The peptide conjugates of the present invention were tested in vivo using a sheep model of cystic fibrosis as described in Scott et al., Am J. Resp. Crit. Care Med., 2017; 196 (6): 734-744; and Sabater et al., PLOS ONE, 2019; 14 (11): e0224764, hereby incorporated by reference in their entirety.
Briefly, tracheal mucous velocity (TMV) was determined in sheep by insufflation of radio-opaque Teflon disks into the trachea and measuring the movement of the disks over a 1 minute period by scintigraphy.
Intubated sheep were treated with the CFTR inhibitor INH-172 by nebulization, which caused a reduction in the mucus transport rate in the trachea. Once a baseline inhibited TMV was obtained at 4 hours following CFTR inhibition, then ENaC inhibitor conjugate (Conj. 13) or control was nebulized into the sheep lung and TMV measurements were repeated hourly.

The next data set concerns the target T2, ENaC (Homo sapiens, UniProt P37088+P51168+P51170).
T2 construct: Primary NHBE cells were isolated from bronchi of normal healthy patients; endogenous in cells; host or cells: primary normal human bronchial epithelial (NHBE) cells, differentiated at air-liquid interface
T2 sequence (P37088 1-669): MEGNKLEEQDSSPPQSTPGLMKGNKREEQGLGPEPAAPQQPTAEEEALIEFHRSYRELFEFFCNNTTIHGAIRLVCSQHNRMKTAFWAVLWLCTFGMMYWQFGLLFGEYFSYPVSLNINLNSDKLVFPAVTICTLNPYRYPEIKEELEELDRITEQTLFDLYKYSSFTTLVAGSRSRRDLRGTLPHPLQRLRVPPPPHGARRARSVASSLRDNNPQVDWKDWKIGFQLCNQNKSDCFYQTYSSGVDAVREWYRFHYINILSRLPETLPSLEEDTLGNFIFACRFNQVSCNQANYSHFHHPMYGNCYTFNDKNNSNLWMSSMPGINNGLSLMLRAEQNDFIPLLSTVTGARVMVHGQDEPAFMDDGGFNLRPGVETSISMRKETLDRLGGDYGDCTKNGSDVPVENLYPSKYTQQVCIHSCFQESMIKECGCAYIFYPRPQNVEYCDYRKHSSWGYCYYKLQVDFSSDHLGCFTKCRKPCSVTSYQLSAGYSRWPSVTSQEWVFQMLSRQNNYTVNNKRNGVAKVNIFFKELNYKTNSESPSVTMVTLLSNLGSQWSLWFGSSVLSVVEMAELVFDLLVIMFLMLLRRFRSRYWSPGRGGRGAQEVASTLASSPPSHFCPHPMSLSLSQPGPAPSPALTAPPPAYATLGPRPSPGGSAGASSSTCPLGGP
T2 sequence (P51168 1-640): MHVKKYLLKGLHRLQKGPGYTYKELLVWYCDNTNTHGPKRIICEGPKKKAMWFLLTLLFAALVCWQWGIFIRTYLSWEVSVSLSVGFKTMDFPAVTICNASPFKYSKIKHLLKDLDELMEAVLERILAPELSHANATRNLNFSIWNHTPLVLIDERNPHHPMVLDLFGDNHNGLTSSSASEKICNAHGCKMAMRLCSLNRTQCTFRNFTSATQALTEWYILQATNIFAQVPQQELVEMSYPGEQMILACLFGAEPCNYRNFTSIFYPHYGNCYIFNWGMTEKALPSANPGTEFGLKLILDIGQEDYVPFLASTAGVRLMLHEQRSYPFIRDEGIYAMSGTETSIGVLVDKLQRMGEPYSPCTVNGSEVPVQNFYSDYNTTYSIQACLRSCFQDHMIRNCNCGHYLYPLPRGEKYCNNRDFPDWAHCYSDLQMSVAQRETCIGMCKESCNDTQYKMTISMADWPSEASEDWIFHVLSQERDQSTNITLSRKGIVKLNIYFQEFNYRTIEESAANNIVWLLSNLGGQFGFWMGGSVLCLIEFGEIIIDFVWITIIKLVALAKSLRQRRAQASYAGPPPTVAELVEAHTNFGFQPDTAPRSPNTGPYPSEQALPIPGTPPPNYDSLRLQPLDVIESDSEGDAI
T2 sequence (P51170 1-649): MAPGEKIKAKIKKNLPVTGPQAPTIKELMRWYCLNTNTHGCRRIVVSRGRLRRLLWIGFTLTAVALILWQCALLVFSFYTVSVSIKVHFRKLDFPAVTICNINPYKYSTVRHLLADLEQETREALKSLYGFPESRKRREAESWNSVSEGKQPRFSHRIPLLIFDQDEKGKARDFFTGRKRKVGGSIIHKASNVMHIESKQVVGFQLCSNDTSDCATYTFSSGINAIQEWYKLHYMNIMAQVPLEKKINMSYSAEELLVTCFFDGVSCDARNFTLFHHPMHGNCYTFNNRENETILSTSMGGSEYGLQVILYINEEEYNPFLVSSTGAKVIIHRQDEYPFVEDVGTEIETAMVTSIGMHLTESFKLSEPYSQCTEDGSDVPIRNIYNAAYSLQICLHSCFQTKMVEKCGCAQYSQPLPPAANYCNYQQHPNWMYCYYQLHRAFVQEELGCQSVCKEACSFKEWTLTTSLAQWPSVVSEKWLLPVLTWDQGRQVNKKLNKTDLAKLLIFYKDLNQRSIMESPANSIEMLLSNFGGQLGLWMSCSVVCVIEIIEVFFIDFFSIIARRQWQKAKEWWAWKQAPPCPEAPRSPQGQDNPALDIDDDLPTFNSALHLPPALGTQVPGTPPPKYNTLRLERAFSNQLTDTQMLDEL
Description: ENaC inhibition in NHBE cell monolayers, Ussing epithelial voltage clamp (short circuit current). As to conditions: NHBE cell monolayers, Ussing chamber, apical addition, 35±2° C. The format is cell-based. As to the method:
The objective of this study was to measure the ability of the illustrative conjugates to modulate ion transport function of ENAC in normal human bronchial epithelial (NHBE) cell monolayers. Sodium transport function of ENAC expressed in NHBE monolayers was evaluated using an Ussing epithelial voltage clamp apparatus. See, Hirsh et al., J. Pharmacol. Exp. Ther. 2008; 325:77-88, hereby incorporated by reference in its entirety.
Primary NHBE cells were isolated from bronchi of normal healthy patients, expanded in Lonza media (BEGM™ BulletKit™), and plated on Snapwell™ filters to form an epithelium. Cells on Snapwell™ inserts were grown for at least 21 days in Vertex Differentiation media and exposed to an air-liquid interface to promote differentiation. At least one day before the assay, mucous overlaying the apical surface was removed from the inserts by incubating the apical surface for about 30 minutes with ≥200 μL of differentiation media followed by aspiration of the mucous film and media.
The NHBE cell monolayers grown on Snapwell™ filter inserts were transferred to Physiologic Instruments Ussing recording chambers (Physiologic Instruments, Inc., San Diego, CA) and superfused with HB-PS. One or more 6-channel or 8-channel Physiologic Instruments VCC MC6 or VCC MC8 epithelial voltage clamps were used in combination to record short circuit current (ISC) from up to 24 inserts simultaneously. Air was used to operate the bubble lifts to rapidly circulate solutions in each Ussing chamber half and to aerate the monolayers.
Inserts were voltage clamped at 0 m V to record the ISC. Bumetanide (20 μM) was added to the basolateral side of all inserts. Test conjugates prepared as DMSO (Sigma-Aldrich) stocks were added cumulatively and sequentially to the apical Ussing chamber halves with at least 3 minutes between each addition.
Time and volume matched additions of DMSO to the basolateral side of the test conjugate treated inserts and both sides of the vehicle treated inserts was made to maintain osmotic balance across the epithelia. Transepithelial resistance was monitored with small voltage steps. The assay was performed at 35±2° C.
ENaC current at each test conjugate concentration was calculated as the peak current change produced by each test conjugate treated insert minus the mean current change produced by the corresponding DMSO additions to time-matched vehicle controls inserts. Cumulative difference data was fit to a Hill equation of the form: […]
Where IEnaC is the ISC peak difference current measured at each test conjugate concentration [Test].

Where no end group is shown, it is not given here. [ ]: non-standard residue; d: D form. Aib = CC(C)(N)C(=O)O; Ahx = NCCCCCC(=O)O

Description for neutrophil elastase: Experiments were therefore performed to determine the stability of the conjugates to protease cleavage.
The conjugates of the invention were incubated in PBS or PBS and 0.1 mg neutrophil elastase for 60 minutes at 37° C. The conjugates were then run on HPLC to determine their stability against protease cleavage.

For the substance “Ac-(AmilCC1)-K-(Aib)-SHLRKLRKRLL-NH2 (K[Aib]SHLRKLRKRLL-NH2; not fully specified (N-terminus); printed as Ac-(AmilCC1)-K-(Aib)-SHLRKLRKRLL-NH2; also: amiloride click conjugate (AmilCC1) at residue 1) [Conjugate 13, amiloride-peptide conjugate, click chemistry, L-alanine replaced by Aib]”, the “susceptibility to cleavage by neutrophil elastase” value with neutrophil elastase is listed as “drastically reduced susceptibility to cleavage by neutrophil elastase”. Further, the “fold better than SPX-101 at restoring TMV in vivo” value in data set [1] (0.25 mg/kg vs SPX-101 2 mg/kg) is “approximately 8 fold”. In addition, the “restoration of TMV” value in data set [1] (nebulized 0.125, 0.25 and 0.5 mg/kg after CFTR inhibitor INH-172, vs 0.9% saline, FIG. 5) is “dose-dependent restoration of TMV”. The “dose needed to restore TMV” value in data set [1] (nebulized, sheep) turned out to be 0.25 mg/kg. Moreover, the “period over which restoration of TMV was sustained” value in data set [1] (nebulized, sheep, vs 0.9% saline) was determined as 8 h.

For the substance “Ac-K-(Ahx)-ASHLRKLRKRLL-NH2 (Ac-K[Ahx]ASHLRKLRKRLL-NH2) [Peptide only Control 2, Peptide only control, reference compound]”, the “IC50 for the ENaC inhibition” value with ENaC was “Did not inhibit”.

In the case of “Ac-K-(Ahx)-VSKRR-NH2 (Ac-K[Ahx]VSKRR-NH2) [Peptide only Control 3, Peptide only control, reference compound]”, the “IC50 for the ENaC inhibition” value in the data set with ENaC is reported as “Did not inhibit”.
